Columns and labels:
Soybean [1] = experiment: Preemergence herbicidal activity, soybean; assay type: in vivo, Glycine max var. Williams; details: Glycine max, pre-emergence, 0.3 kg/ha, after 17-21 days, read-out: Preemergence herbicidal activity (% control), Soybean
Procedure: (§1) The 3-[4-(phenylmethoxy)phenyl]-1-substituted-6-haloalkyluracil herbicides of this invention were tested for pre- and postemergence herbicidal activity using a variety of crops and weeds. The test plants included soybean (Glycine max var. Williams), field corn (Zea mays var. Agway 425X), wheat (Triticum aestivum var. Wheaton), morningglory (Ipomea lacunosa or Ipomea hederacea), velvetleaf (Abutilon theophrasti), green foxtail (Setaria viridis), Johnsongrass (Sorghum halepense), blackgrass (Aloepecurus myosuroides), common chickweed (Stellaria media), and common cocklebur (Xanthium pensylvanicum).
(§2) For preemergence testing, two disposable fiber flats (8 cm×15 cm×25 cm) for each rate of application of each candidate herbicide were filled to an approximate depth of 6.5 cm with steam-sterilized sandy loam soil. The soil was leveled and impressed with a template to provide five evenly spaced furrows 13 cm long and 0.5 cm deep in each flat. Seeds of soybean, wheat, corn, green foxtail, and johnsongrass were planted in the furrows of the first flat, and seeds of velvetleaf, morningglory, common chickweed, cocklebur, and blackgrass were planted in the furrows of the second flat. The five-row template was employed to firmly press the seeds into place. A topping soil of equal portions of sand and sandy loam soil was placed uniformly on top of each flat to a depth of approximately 0.5 cm. Flats for postemergence testing were prepared in the same manner except that they were planted 8-12 days prior to the preemergence flats and were placed in a greenhouse and watered, thus allowing the seeds to germinate and the foliage to develop.
(§3) In both pre- and postemergence tests, a stock solution of the candidate herbicide was prepared by dissolving 0.27 g of the compound in 20 mL of water/acetone (50/50) containing 0.5% v/v sorbitan monolaurate. For an application rate of 3000 g/ha of herbicide a 10 mL portion of the stock solution was diluted with water/acetone (50/50) to 45 mL.
(§4) The preemergence flats were initially subjected to a light water spray. The four flats were placed two by two along a conveyor belt (i.e., the two preemergence followed by the two postemergence flats). The conveyor belt fed under a spray nozzle mounted about ten inches above the postemergent foliage. The preemergent flats were elevated on the belt so that the soil surface was at the same level below the spray nozzle as the foliage canopy of the postemergent plants. The spray of herbicidal solution was commenced and once stabilized, the flats were passed under the spray at a speed to receive a coverage equivalent of 1000 L/ha. At this coverage the application rates are those shown in the above table for the individual herbicidal solutions. The preemergence flats were watered immediately thereafter, placed in the greenhouse and watered regularly at the soil surface. The postemergence flats were immediately placed in the greenhouse and not watered until 24 hours after treatment with the test solution. Thereafter they were regularly watered at ground level. After 17-21 days the plants were examined and the phytotoxicity data were recorded.
(§5) Herbicidal activity data at selected application rates are given for various compounds of this invention in Table 2 and Table 3. The test compounds are identified by numbers which correspond to those in Table 1.
(§6) Phytotoxicity data were taken as percent control. Percent control was determined by a method similar to the 0 to 100 rating system disclosed in "Research Methods in Weed Science," 2nd ed., B. Truelove, Ed.; Southern Weed Science Society; Auburn University, Auburn, Ala., 1977.

Wheat [2] = experiment: Preemergence herbicidal activity, wheat; assay type: in vivo, Triticum aestivum var. Wheaton; details: Triticum aestivum, pre-emergence, 0.3 kg/ha, after 17-21 days, read-out: Preemergence herbicidal activity (% control), Wheat
Procedure: as §1, §2, §3, §4, §5, §6

Corn [3] = experiment: Preemergence herbicidal activity, corn; assay type: in vivo, Zea mays var. Agway 425X; details: Zea mays, pre-emergence, 0.3 kg/ha, after 17-21 days, read-out: Preemergence herbicidal activity (% control), Corn
Procedure: as §1, §2, §3, §4, §5, §6

Velvetleaf [4] = experiment: Preemergence herbicidal activity, velvetleaf; assay type: in vivo; details: Abutilon theophrasti, pre-emergence, 0.3 kg/ha, after 17-21 days, read-out: Preemergence herbicidal activity (% control), Velvetleaf
Procedure: as §1, §2, §3, §4, §5, §6

Morningglory [5] = experiment: Preemergence herbicidal activity, morningglory; assay type: in vivo, Ipomea lacunosa or Ipomea hederacea; details: Ipomoea, pre-emergence, 0.3 kg/ha, after 17-21 days, read-out: Preemergence herbicidal activity (% control), Morningglory
Procedure: as §1, §2, §3, §4, §5, §6

Chickweed [6] = experiment: Preemergence herbicidal activity, chickweed; assay type: in vivo; details: Stellaria media, pre-emergence, 0.3 kg/ha, after 17-21 days, read-out: Preemergence herbicidal activity (% control), Chickweed
Procedure: as §1, §2, §3, §4, §5, §6

Cocklebur [7] = experiment: Preemergence herbicidal activity, cocklebur; assay type: in vivo, Xanthium pensylvanicum; details: Xanthium strumarium, pre-emergence, 0.3 kg/ha, after 17-21 days, read-out: Preemergence herbicidal activity (% control), Cocklebur
Procedure: as §1, §2, §3, §4, §5, §6

Blackgrass [8] = experiment: Preemergence herbicidal activity, blackgrass; assay type: in vivo, Aloepecurus myosuroides; details: Alopecurus myosuroides, pre-emergence, 0.3 kg/ha, after 17-21 days, read-out: Preemergence herbicidal activity (% control), Blackgrass
Procedure: as §1, §2, §3, §4, §5, §6

Green foxtail [9] = experiment: Preemergence herbicidal activity, green foxtail; assay type: in vivo; details: Setaria viridis, pre-emergence, 0.3 kg/ha, after 17-21 days, read-out: Preemergence herbicidal activity (% control), Green foxtail
Procedure: as §1, §2, §3, §4, §5, §6

Johnsongrass [10] = experiment: Preemergence herbicidal activity, johnsongrass; assay type: in vivo; details: Sorghum halepense, pre-emergence, 0.3 kg/ha, after 17-21 days, read-out: Preemergence herbicidal activity (% control), Johnsongrass
Procedure: as §1, §2, §3, §4, §5, §6

Soybean [11] = experiment: Postemergence herbicidal activity, soybean; assay type: in vivo, Glycine max var. Williams; details: Glycine max, post-emergence, 0.3 kg/ha, after 17-21 days, read-out: Postemergence herbicidal activity (% control), Soybean
Procedure: as §1, §2, §3, §4, §5, §6

Wheat [12] = experiment: Postemergence herbicidal activity, wheat; assay type: in vivo, Triticum aestivum var. Wheaton; details: Triticum aestivum, post-emergence, 0.3 kg/ha, after 17-21 days, read-out: Postemergence herbicidal activity (% control), Wheat
Procedure: as §1, §2, §3, §4, §5, §6

Corn [13] = experiment: Postemergence herbicidal activity, corn; assay type: in vivo, Zea mays var. Agway 425X; details: Zea mays, post-emergence, 0.3 kg/ha, after 17-21 days, read-out: Postemergence herbicidal activity (% control), Corn
Procedure: as §1, §2, §3, §4, §5, §6

Velvetleaf [14] = experiment: Postemergence herbicidal activity, velvetleaf; assay type: in vivo; details: Abutilon theophrasti, post-emergence, 0.3 kg/ha, after 17-21 days, read-out: Postemergence herbicidal activity (% control), Velvetleaf
Procedure: as §1, §2, §3, §4, §5, §6

Morningglory [15] = experiment: Postemergence herbicidal activity, morningglory; assay type: in vivo, Ipomea lacunosa or Ipomea hederacea; details: Ipomoea, post-emergence, 0.3 kg/ha, after 17-21 days, read-out: Postemergence herbicidal activity (% control), Morningglory
Procedure: as §1, §2, §3, §4, §5, §6

Chickweed [16] = experiment: Postemergence herbicidal activity, chickweed; assay type: in vivo; details: Stellaria media, post-emergence, 0.3 kg/ha, after 17-21 days, read-out: Postemergence herbicidal activity (% control), Chickweed
Procedure: as §1, §2, §3, §4, §5, §6

Cocklebur [17] = experiment: Postemergence herbicidal activity, cocklebur; assay type: in vivo, Xanthium pensylvanicum; details: Xanthium strumarium, post-emergence, 0.3 kg/ha, after 17-21 days, read-out: Postemergence herbicidal activity (% control), Cocklebur
Procedure: as §1, §2, §3, §4, §5, §6

Blackgrass [18] = experiment: Postemergence herbicidal activity, blackgrass; assay type: in vivo, Aloepecurus myosuroides; details: Alopecurus myosuroides, post-emergence, 0.3 kg/ha, after 17-21 days, read-out: Postemergence herbicidal activity (% control), Blackgrass
Procedure: as §1, §2, §3, §4, §5, §6

Green foxtail [19] = experiment: Postemergence herbicidal activity, green foxtail; assay type: in vivo; details: Setaria viridis, post-emergence, 0.3 kg/ha, after 17-21 days, read-out: Postemergence herbicidal activity (% control), Green foxtail
Procedure: as §1, §2, §3, §4, §5, §6

Johnsongrass [20] = experiment: Postemergence herbicidal activity, johnsongrass; assay type: in vivo; details: Sorghum halepense, post-emergence, 0.3 kg/ha, after 17-21 days, read-out: Postemergence herbicidal activity (% control), Johnsongrass
Procedure: as §1, §2, §3, §4, §5, §6

Row | Compound | activity at 300 g/ha (Soybean [1]) [%] | activity at 300 g/ha (Wheat [2]) [%] | activity at 300 g/ha (Corn [3]) [%] | activity at 300 g/ha (Velvetleaf [4]) [%] | activity at 300 g/ha (Morningglory [5]) [%] | activity at 300 g/ha (Chickweed [6]) [%] | activity at 300 g/ha (Cocklebur [7]) [%] | activity at 300 g/ha (Blackgrass [8]) [%] | activity at 300 g/ha (Green foxtail [9]) [%] | activity at 300 g/ha (Johnsongrass [10]) [%] | activity at 300 g/ha (Soybean [11]) [%] | activity at 300 g/ha (Wheat [12]) [%] | activity at 300 g/ha (Corn [13]) [%] | activity at 300 g/ha (Velvetleaf [14]) [%] | activity at 300 g/ha (Morningglory [15]) [%] | activity at 300 g/ha (Chickweed [16]) [%] | activity at 300 g/ha (Cocklebur [17]) [%] | activity at 300 g/ha (Blackgrass [18]) [%] | activity at 300 g/ha (Green foxtail [19]) [%] | activity at 300 g/ha (Johnsongrass [20]) [%]
1 | Cn1c(C(F)(F)F)cc(=O)n(-c2ccc(OCc3c(Cl)cccc3Cl)cc2)c1=O [Compound 7] | 0 | 0 | 0 | 0 | 0 | 0 | 0 | 0 | 0 | 0 | 0 | 0 | 0 | 0 | 10 | 0 | 0 | 0 | 90 | 0
2 | COc1cccc(COc2ccc(-n3c(=O)cc(C(F)(F)F)n(C)c3=O)cc2)c1 [Compound 8] | 10 | 15 | 35 | 100 | 65 | 90 | 0 | 10 | 100 | 80 | 85 | 10 | 85 | 100 | 100 | 100 | 100 | 10 | 100 | 100
3 | Cn1c(C(F)(F)F)cc(=O)n(-c2ccc(OCc3ccccc3)cc2F)c1=O [Compound 9] | 85 | 40 | 80 | 100 | 100 | 90 | 50 | 30 | 100 | 100 | 70 | 20 | 70 | 100 | 100 | 80 | 100 | 0 | 100 | 95
4 | Cn1c(C(F)(F)F)cc(=O)n(-c2ccc(OCc3ccc(Cl)cc3)cc2F)c1=O [Compound 10, 3-[4-(4-Chlorophenylmethoxy)-2-fluorophenyl]-1-methyl-6-trifluoromethyluracil] | 100 | 20 | 20 | 100 | 100 | 100 | 100 | 50 | 100 | 95 | 95 | 10 | 50 | 100 | 100 | 100 | 100 | 40 | 100 | 95
5 | Cn1c(C(F)(F)F)cc(=O)n(-c2ccc(OCc3ccc(F)cc3)cc2F)c1=O [Compound 11] | 85 | 20 | 85 | 100 | 100 | 100 | 90 | 20 | 100 | 95 | 80 | 20 | 70 | 100 | 100 | 80 | 100 | 0 | 100 | 100
6 | Cc1cc(OCc2ccccc2)ccc1-n1c(=O)cc(C(F)(F)F)n(C)c1=O [Compound 12] | 10 | 0 | 40 | 60 | 10 | 0 | 0 | 0 | 80 | 60 | 20 | 0 | 0 | 30 | 20 | 0 | 0 | 0 | 50 | 0
7 | Cc1cc(OCc2ccc(Cl)cc2)ccc1-n1c(=O)cc(C(F)(F)F)n(C)c1=O [Compound 13] | 40 | 0 | 30 | 100 | 60 | 10 | 0 | 30 | 100 | 90 | 30 | 0 | 40 | 100 | 100 | 30 | 90 | 20 | 80 | 20
